Drawing on patent US11066369B2, “N-(pyridin-2-yl)pyridine-sulfonamide derivatives and their use in the treatment of disease” (Novartis AG, priority 2016, dated 2021), this text covers Emax and EC50 for 22 molecules.

For the test, the target named is T1, horseradish peroxidase (HRP) tagged delF508-CFTR (Homo sapiens, UniProt P13569, DEL508-508).
T1 construct: expressed in transfected cells
Kind of test: Measurement of delF508-CFTR-HRP surface expression in CFBE41o- cells.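 For DelF508-CFTR-HRP Amax %: percent efficacy relative to reference corrector lumacaftor.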 The test is classed as cell-based. The conditions noted are these: CFBE41o- cells; for Emax: read-out: DelF508-CFTR-HRP Amax %; for EC50: read-out: DelF508-CFTR-HRP EC50. The source says:
Measurement of delF508-CFTR-HRP Surface Expression in CFBE41o-Cells
This assay quantifies the cell surface expressions of the mutant CFTR channel using an extracellular HRP tag.
A cellular assay was developed to measure surface expression of horseradish peroxidase (HRP) tagged delF508-CFTR in the human bronchial epithelial immortalized CFBE41o-cell line (Phuan, P. W., et al, (2014) Molecular Pharmacology 86:42-51). Specifically, the HRP sequence was inserted into the fourth extracellular loop of delF508-CFTR and stably expressed in CFBE41o-cells. Cells were seeded in 384 well plate at a density of 5000 cells/well and incubated at 37° C. for 12 to 24 hours in medium (Gibco MEM #11095, 10% FBS, 10 mM HEPES, […], 200 μg/mL G418, 3 μg/mL Puromycin). The delF508-CFTR-HRP expression was induced with 500 ng/mL doxycycline (Sigma D-9891, dissolved in H2O and sterile filtered) in medium and the cells were incubated at 37° C. for 48h. Old medium was removed and fresh medium was added containing 500 ng/mL doxycycline and unknown test compound at required test concentration in DMSO, not exceeding 0.5% final DMSO concentration. The highest concentration tested was 10 μM with a 10-point concentration response curve using a 3-fold dilution. After addition of compounds, the cells were incubated for 24h at 37° C. On the final day, cells were washed four times in PBS containing 1 mM MgCl2 and 0.1 mM CaCl2. HRP-Substrate (SuperSignal ELISA Pico, Fisher #37069) 20 μl/well was added and the luminescence signal was determined (Viewlux, Perkin Elmer). Light was emitted upon addition of exogenous HRP-Substrate only when delF508-CFTR-HRP reached the cell surface and the HRP tag was accessible to the HRP-Substrate (note: HRP-Substrate cannot cross the lipid bilayer to reach delF508-CFTR-HRP misfolded within the cell).
The median activity for the lowest concentration of the compounds on each assay plate was calculated and this value was used to normalize the signal for each well on the respective plate. Three replicates at each concentrations for every compound were run to determine one EC50. The median value was determined and used to calculate compound activities as described below. Effective half maximal values (EC50) were calculated for each compound by performing logistic regression on measured dose-response data points using the equation:
[formula] where “Y” is the observed activity, “Bottom” is the lowest observed value, “Top” is the highest observed value, and the “Hill coefficient” gives the largest absolute value of the slope. The curve fitting is carried out by a curve fitting program implemented at GNF using Matlab (Mathworks).
The dose response curves also were used to calculate Fold Change (FC) using the equation: […]
Compound efficacy relative to the reference compound 3-(6-(1-(2,2-difluorobenzo[d][1,3]dioxol-5-yl)cyclopropane-1-carboxamido)-3-methylpyridin-2-yl)benzoic acid was determined using the following formula: […]

Setting [1] is: delF508-CFTR-HRP surface expression.
The mark [2] stands for this setting: mean of at least two replicates.

Where a name gives a salt, the structure may show the parent alone. Read-outs that look alike come from different tables or passages of the source.

T1 sequence (P13569 with tags, fused parts or gaps DEL508-508): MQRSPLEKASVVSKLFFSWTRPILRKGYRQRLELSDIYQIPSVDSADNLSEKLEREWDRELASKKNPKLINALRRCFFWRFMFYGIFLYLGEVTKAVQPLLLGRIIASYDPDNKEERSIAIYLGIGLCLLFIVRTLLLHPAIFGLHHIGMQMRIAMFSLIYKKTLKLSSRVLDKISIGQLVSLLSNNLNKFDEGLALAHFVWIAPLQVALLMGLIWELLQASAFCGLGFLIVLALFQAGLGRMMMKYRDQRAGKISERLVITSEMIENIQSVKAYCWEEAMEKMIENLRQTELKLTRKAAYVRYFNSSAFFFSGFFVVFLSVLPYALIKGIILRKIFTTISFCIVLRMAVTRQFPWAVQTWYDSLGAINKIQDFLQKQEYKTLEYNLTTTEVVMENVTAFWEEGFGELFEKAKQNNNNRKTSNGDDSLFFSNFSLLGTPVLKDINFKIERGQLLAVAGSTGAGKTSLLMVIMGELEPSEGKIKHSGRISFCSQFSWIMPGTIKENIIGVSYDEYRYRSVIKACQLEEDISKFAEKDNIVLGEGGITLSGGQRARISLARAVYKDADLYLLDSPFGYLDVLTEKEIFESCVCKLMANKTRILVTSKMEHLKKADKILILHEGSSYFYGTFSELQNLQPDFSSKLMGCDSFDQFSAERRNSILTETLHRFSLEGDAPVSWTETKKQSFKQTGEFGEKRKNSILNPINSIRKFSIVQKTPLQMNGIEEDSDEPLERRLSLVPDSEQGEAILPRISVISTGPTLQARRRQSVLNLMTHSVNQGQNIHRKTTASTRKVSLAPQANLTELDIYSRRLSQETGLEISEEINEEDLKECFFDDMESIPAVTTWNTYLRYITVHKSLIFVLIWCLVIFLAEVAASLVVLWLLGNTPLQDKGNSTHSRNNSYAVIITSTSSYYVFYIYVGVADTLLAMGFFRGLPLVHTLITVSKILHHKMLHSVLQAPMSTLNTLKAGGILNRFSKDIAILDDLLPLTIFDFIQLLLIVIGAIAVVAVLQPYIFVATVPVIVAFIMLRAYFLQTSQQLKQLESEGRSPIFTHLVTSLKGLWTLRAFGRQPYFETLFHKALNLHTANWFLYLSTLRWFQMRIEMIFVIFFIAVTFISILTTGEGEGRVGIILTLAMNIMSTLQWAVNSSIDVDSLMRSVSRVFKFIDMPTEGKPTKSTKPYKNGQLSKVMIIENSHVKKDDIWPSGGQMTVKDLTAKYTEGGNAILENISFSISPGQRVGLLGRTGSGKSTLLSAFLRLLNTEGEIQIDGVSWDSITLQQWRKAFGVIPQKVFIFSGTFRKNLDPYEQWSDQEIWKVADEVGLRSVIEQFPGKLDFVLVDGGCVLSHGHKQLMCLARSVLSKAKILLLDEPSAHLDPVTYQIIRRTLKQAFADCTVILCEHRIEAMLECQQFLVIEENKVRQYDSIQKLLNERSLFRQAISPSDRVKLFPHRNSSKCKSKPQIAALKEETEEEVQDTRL

Regarding `Cc1ccccc1-c1nc(NS(=O)(=O)c2cccc(N3CCN(C(=O)OC(C)(C)C)C[C@@H]3C(=O)O)n2)ccc1C(F)(F)F` [Example 347, (2R)-4-[(tert-butoxy)carbonyl]-1-(6-{[6-(2-methylphenyl)-5-(trifluoromethyl)pyridin-2-yl]sulfamoyl}pyridin-2-yl)piperazine-2-carboxylic Acid], under setting [1], the Emax is 245% and the EC50 (commonly the midpoint of the concentration-response curve) worked out at 1890 nM.

Consider `Cc1ccc(F)cc1-c1nc(NS(=O)(=O)c2cccc(N3CCC[C@@](C)(C(=O)O)C3)n2)ccc1C(F)(F)F` [Example 416, (3R)-1-(6-{[6-(5-fluoro-2-methylphenyl)-5-(trifluoromethyl)pyridin-2-yl]sulfamoyl}pyridin-2-yl)-3-methylpiperidine-3-carboxylic Acid], for which the EC50 under setting [2] came to 1900 nM.

On to `Cc1cc(C#N)ccc1-c1nc(NS(=O)(=O)c2ccnc(N)c2)ccc1Cl` [Example 92, 2-amino-N-(5-chloro-6-(4-cyano-2-methylphenyl)pyridin-2-yl)pyridine-4-sulfonamide], for which, under setting [1], the Emax was 23.9% and the EC50 was 1110 nM.

Consider `CC(C)c1ccccc1-c1nc(NS(=O)(=O)c2cccc(N3CCC[C@@](C)(C(=O)O)C3)n2)ccc1C(F)(F)F` [Example 384, (R)-1-(6-(N-(6-(2-isopropylphenyl)-5-(trifluoromethyl)pyridin-2-yl)sulfamoyl)pyridin-2-yl)-3-methylpiperidine-3-carboxylic Acid], for which the EC50 under setting [2] was determined as 501 nM.

For `Cc1ccccc1-c1nc(NS(=O)(=O)c2ccc(N)nc2)ccc1Cl` [Example 40, 6-amino-N-(5-chloro-6-(o-tolyl)pyridin-2-yl)pyridine-3-sulfonamide], under setting [1], the Emax is 373% and the EC50 amounted to 2360 nM.

Regarding `Cc1ccc(C#N)cc1-c1nc(NS(=O)(=O)c2cccc(N)n2)ccc1C(F)(F)F` [Example 83, 6-amino-N-(6-(5-cyano-2-methylphenyl)-5-(trifluoromethyl)pyridin-2-yl)pyridine-2-sulfonamide], under setting [1], the Emax worked out at 115% and the EC50 is 4110 nM.

On to `CC(C)c1ccccc1-c1nc(NS(=O)(=O)c2cccc(N3CCCC(C)(C(=O)O)C3)n2)ccc1Cl` (stereo not drawn) [Example 388, 1-(6-(N-(5-chloro-6-(2-isopropylphenyl)pyridin-2-yl)sulfamoyl)pyridin-2-yl)-3-methylpiperidine-3-carboxylic Acid], for which the EC50 under setting [2] stood at 1020 nM. Besides, under “surface expression Amax”, the Emax worked out at 928%.

With `Cc1ccccc1-c1nc(NS(=O)(=O)c2cccc(N3CCN(C(=O)OC(C)(C)C)[C@H](C(=O)O)C3)n2)ccc1C(F)(F)F` [Example 334, (2S)-1-[(tert-butoxy)carbonyl]-4-(6-{[6-(2-methylphenyl)-5-(trifluoromethyl)pyridin-2-yl]sulfamoyl}pyridin-2-yl)piperazine-2-carboxylic Acid], under setting [1], the Emax turned out to be 164% and the EC50 was found to be 2470 nM.

In the case of `CC(C)COc1ccccc1-c1nc(NS(=O)(=O)c2cccc(N3CCC(C)(C(=O)O)CC3)n2)ccc1C(F)(F)F` [Example 382, 1-(6-(N-(6-(2-isobutoxyphenyl)-5-(trifluoromethyl)pyridin-2-yl)sulfamoyl)pyridin-2-yl)-4-methylpiperidine-4-carboxylic Acid], under setting [2], the EC50 was found to be 711 nM. For the same molecule, the Emax (surface expression Amax) is 504%.

With `CCC1(C(=O)O)CCCN(c2cccc(S(=O)(=O)Nc3ccc(Cl)c(-c4ccccc4C)n3)n2)C1` (stereo not drawn) [Example 452, 1-(6-(N-(5-chloro-6-(o-tolyl)pyridin-2-yl)sulfamoyl)pyridin-2-yl)-3-ethylpiperidine-3-carboxylic Acid], under setting [2], the EC50 stood at 2360 nM. The Emax (surface expression Amax) worked out at 990%.

Regarding `Cc1cccc(C)c1-c1nc(NS(=O)(=O)c2cccc(N)n2)c(F)cc1Cl` [Example 95, 6-amino-N-(5-chloro-6-(2,6-dimethylphenyl)-3-fluoropyridin-2-yl)pyridine-2-sulfonamide], under setting [1], the Emax stood at 19% and the half-maximal effective concentration (EC50) was 3750 nM.

For `O=S(=O)(Nc1ccc(C(F)(F)F)c(-c2cccc(F)c2Cl)n1)c1cccc(N2CCNCC2)n1` [Example 155, N-(6-(2-chloro-3-fluorophenyl)-5-(trifluoromethyl)pyridin-2-yl)-6-(piperazin-1-yl)pyridine-2-sulfonamide hydrochloride], under setting [1], the Emax was 196% and the EC50 was 4400 nM.

As for `Cc1ccc(F)cc1-c1nc(NS(=O)(=O)c2ccnc(N3CCNCC3)c2)ccc1Cl` [Example 327, N-(5-chloro-6-(5-fluoro-2-methylphenyl)pyridin-2-yl)-2-(piperazin-1-yl)pyridine-4-sulfonamide], under setting [1], the Emax was determined as 92.5% and the EC50 amounted to 4260 nM.

As for `Cc1ccc(F)cc1-c1nc(NS(=O)(=O)c2ccnc(N)c2)ccc1Cl` [Example 46, 2-amino-N-(5-chloro-6-(5-fluoro-2-methylphenyl)pyridin-2-yl)pyridine-4-sulfonamide], under setting [1], the Emax came out at 339% and the EC50 worked out at 1950 nM.

Consider `CC1(C(=O)O)CCN(c2cccc(S(=O)(=O)Nc3ccc(C(F)(F)F)c(-c4ccccc4C4CCC4)n3)n2)CC1` [Example 363, 1-(6-(N-(6-(2-cyclobutylphenyl)-5-(trifluoromethyl)pyridin-2-yl)sulfamoyl)pyridin-2-yl)-4-methylpiperidine-4-carboxylic Acid], for which, under setting [1], the Emax worked out at 616% and the EC50 came to 705 nM.

For the molecule `Cc1ccc(OC(F)(F)F)cc1-c1nc(NS(=O)(=O)c2cccc(N)n2)ccc1C(F)(F)F` [Example 82, 6-amino-N-(6-(2-methyl-5-(trifluoromethoxy)phenyl)-5-(trifluoromethyl)pyridin-2-yl)pyridine-2-sulfonamide], under setting [1], the Emax was found to be 124% and the EC50 is 942 nM.

As for `Nc1cccc(S(=O)(=O)Nc2ccc(C(F)(F)F)c(-c3cccc(C(F)(F)F)c3)n2)n1` [Example 79, 6-amino-N-(5-(trifluoromethyl)-6-(3-(trifluoromethyl)phenyl)pyridin-2-yl)pyridine-2-sulfonamide], under setting [1], the Emax was determined as 141% and the EC50 was 2300 nM.

Consider `Cc1ccccc1-c1nc(NS(=O)(=O)c2cccc(N3CCN4CC(F)(F)C[C@H]4C3)n2)ccc1C(F)(F)F` [Example 136, (S)-6-(7,7-difluorohexahydropyrrolo[1,2-a]pyrazin-2(1H)-yl)-N-(6-(o-tolyl)-5-(trifluoromethyl)pyridin-2-yl)pyridine-2-sulfonamide], for which, under setting [1], the Emax worked out at 862% and the EC50 worked out at 1110 nM.

In the case of `CCc1ccccc1-c1nc(S(=O)(=O)Nc2cccc(N3CCC(C)(C(=O)O)CC3)n2)ccc1C(F)(F)F` [Example 380, 1-(6-(6-(2-ethylphenyl)-5-(trifluoromethyl)pyridine-2-sulfonamido)pyridin-2-yl)-4-methylpiperidine-4-carboxylic Acid], the EC50 under setting [2] stood at 2660 nM. Further, for the setting “surface expression Amax”, the Emax was 42.3%.

As for `CC1(C(=O)O)CCN(c2cccc(S(=O)(=O)Nc3ccc(C(F)(F)F)c(-c4ccc(F)cc4Cl)n3)n2)CC1` [Example 240, 1-(6-(N-(6-(2-chloro-4-fluorophenyl)-5-(trifluoromethyl)pyridin-2-yl)sulfamoyl)pyridin-2-yl)-4-methylpiperidine-4-carboxylic Acid], under setting [1], the Emax amounted to 385% and the EC50 was found to be 3420 nM.

For `CC(C)c1ccccc1-c1nc(NS(=O)(=O)c2cccc(N[C@H]3CCC[C@H](C(=O)O)C3)n2)ccc1C(F)(F)F` [Example 418, (1S,3S)-3-((6-(N-(6-(2-isopropylphenyl)-5-(trifluoromethyl)pyridin-2-yl)sulfamoyl)pyridin-2-yl)amino)cyclohexanecarboxylic Acid], the EC50 under setting [2] is 1220 nM. For the same molecule, for the setting “surface expression Amax”, the Emax is 644%.

Consider `Cc1cc(NS(=O)(=O)c2cccc(N)n2)nc(-c2c(C)cccc2C)c1` [Example 63, 6-amino-N-(6-(2,6-dimethylphenyl)-4-methylpyridin-2-yl)pyridine-2-sulfonamide], for which, under setting [1], the Emax came out at 226% and the EC50 turned out to be 2690 nM.
